Laboratory results from patent publication US20250092067A1, “APT1 and APT2 Inhibitors and Uses Thereof” (Cornell University, priority 2021, published 2025).
Where “and” joins values, the source holds several entries; their conditions need not be identical. Identical values can stand only once. Like-named read-outs stand apart in the source and are kept apart here.

Assays:
APT2 [1] = target: T1, APT2 (Homo sapiens, UniProt O95372); test: APT2 enzymatic assay, resorufin acetate as fluorogenic substrate; format: biochemical; set-up: made in house; host or cells: E. coli BL21 (DE3)
APT1 [2] = target: T2, APT1 (Homo sapiens, UniProt O75608); test: APT1 enzymatic assay, resorufin acetate as fluorogenic substrate; format: biochemical
T2 construct: made in house; host or cells: E. coli BL21 (DE3)

STAT3 palmitoylation [3] = test: STAT3 palmitoylation in HEK 293T cells expressing STAT3 and DHHC7 (endogenous APT2); format: cell-based; details: 16-hour treatment; for palmitoylation signal of STAT3: 50 μM
APT2 [4] = target: T1, APT2; test: Competitive in vitro ABPP with TAMRA-FP, cell lysate spiked with APT2; format: binding; set-up: made in house; host or cells: E. coli BL21 (DE3); details: for inhibition at 90 µM: inhibitor at 90 μM
[5] = 50 mg/kg daily injection
DSS induced colitis = test: Dextran sodium sulfate (DSS) induced colitis model; format: in vivo, mice; details: for lengths of the colons compared to the control groups / colon length longer than the control group / colon length difference to control: 50 mg/kg intraperitoneal; for lengths of the colons compared to the control groups: 2.5% DSS, all groups; for body weight loss / colon length longer than the control group: female mice; for difference in body weight / colon length difference to control: male mice
APT2 [6] = target: T1, APT2; test: Gel filtration assay to identify covalent inhibitors (TAMRA-FP labeling); format: biochemical; set-up: expressed in transfected cells; host or cells: HEK 293T
off target proteins = test: TAMRA-FP ABPP in APT2 spiked cell lysate, other bands (off targets); format: binding; details: FIG. 8
APT1 [7] = target: T2, APT1; test: Competitive in vitro ABPP with TAMRA-FP, cell lysate spiked with APT1; format: binding; details: qualitative, FIG. 6C
SMAD2 palmitoylation = SMAD2 palmitoylation in HEK 293T cells (Alk14 labeling, in-gel fluorescence); format: cell-based; details: inhibitors at 25 μM, 6 h
HEK 293T cells = test: Cell viability of HEK 293T cells; details: at 50 mM (so in the source)
STAT3 palmitoylation [8] = test: STAT3 palmitoylation in HEK 293T cells transfected with STAT3, APT2 and DHHC7; format: cell-based; details: inhibitors at 25 μM for 16 hours
[9] = Table 1, resorufin acetate as the substrate, read-out: IC50 (μM) APT2
[10] = Table 2, class symbols, read-out: IC50 (μM) APT2
[11] = Table 1, resorufin acetate as the substrate, read-out: IC50 (μM) APT1
[12] = Table 2, class symbols, read-out: IC50 (μM) APT1
[13] = read-out: inhibition of TAMRA-FP fluorescent labeling of APT2
[14] = Example 3 (FIG. 4), 15 min pre-incubation, read-out: IC50 APT2
[15] = Example 3 (FIG. 4), 15 min pre-incubation

T1 sequence (O95372 whole entry): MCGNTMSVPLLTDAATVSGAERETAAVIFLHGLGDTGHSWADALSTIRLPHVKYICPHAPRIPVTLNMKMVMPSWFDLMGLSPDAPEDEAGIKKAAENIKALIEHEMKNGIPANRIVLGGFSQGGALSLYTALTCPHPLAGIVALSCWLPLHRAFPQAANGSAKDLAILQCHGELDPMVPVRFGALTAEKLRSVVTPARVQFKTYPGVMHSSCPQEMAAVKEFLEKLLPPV
T2 sequence (O75608 whole entry): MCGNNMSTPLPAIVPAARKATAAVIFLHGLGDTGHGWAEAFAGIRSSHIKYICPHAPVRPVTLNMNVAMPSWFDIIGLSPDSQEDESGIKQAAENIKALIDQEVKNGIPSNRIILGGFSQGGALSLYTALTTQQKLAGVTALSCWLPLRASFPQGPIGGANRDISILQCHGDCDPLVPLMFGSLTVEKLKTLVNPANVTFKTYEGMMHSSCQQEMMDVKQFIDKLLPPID

| Structure (SMILES) | IC50 (APT2 [1]; [9]) [µM] | IC50 (APT2 [1]; [10]) [µM] | IC50 (APT1 [2]; [11]) [µM] | IC50 (APT1 [2]; [12]) [µM] | other results |
| --- | --- | --- | --- | --- | --- |
| CCCOc1ccc(N2CCN(C(=O)c3cc4c(s3)-c3ccccc3S(=O)(=O)C4)CC2)cc1 [APT-MY1] | 0.836 | 0.1 to 1 | > 200 | > 40 |  |
| CCCCCCOc1ccc(N2CCN(C(=O)c3cc4c(s3)-c3ccccc3S(=O)(=O)C4)CC2)cc1 [APT-MY2] | 2.03 | 1 to 40 | > 200 | > 40 |  |
| CCCNC(=O)c1cc2c(s1)-c1ccccc1S(=O)(=O)C2 [APT-MY3, N-Propyl-4H-thieno[3,2-c]thiochromene-2-carboxamide 5,5-dioxide] | > 200 | > 40 | > 200 | > 40 |  |
| CCCCCCN1CCN(C(=O)c2cc3c(s2)-c2ccccc2S(=O)(=O)C3)CC1 [APT-MY4, (5,5-dioxido-4H-thieno[3,2-c]thiochromen-2-yl) (4-hexylpiperazin-1-yl) methanone] | 3.99 | 1 to 40 | > 200 | > 40 |  |
| Cc1ccc(NC(=O)c2cc3c(s2)-c2ccccc2S(=O)(=O)C3)cc1 [APT-MY5, N-(p-tolyl)-4H-thieno[3,2-c]thiochromene-2-carboxamide 5,5-dioxide] | > 200 | > 40 | > 200 | > 40 |  |
| CCCCCCCCc1ccc(NC(=O)c2cc3c(s2)-c2ccccc2S(=O)(=O)C3)cc1 [APT-MY6, N-(4-octylphenyl)-4H-thieno[3,2-c]thiochromene-2-carboxamide 5,5-dioxide] | > 200 | > 40 | > 200 | > 40 |  |
| CCCCCCCCNC(=O)c1cc2c(s1)-c1ccccc1S(=O)(=O)C2 [APT-MY7, N-octyl-4H-thieno[3,2-c]thiochromene-2-carboxamide 5,5-dioxide] | > 200 | > 40 | > 200 | > 40 |  |
| COc1ccc(N2CCN(C(=O)c3cc4c(s3)-c3ccccc3[S+]([O-])C4)CC2)cc1 (centres unmarked) [APT-MY8] |  |  | > 200 | > 40 |  |
| COc1ccc(N2CCN(C(=O)c3cc4cc(B(O)O)c5ccccc5c4s3)CC2)cc1 [KW5129, (2-(4-(4-Methoxyphenyl)piperazine-1-carbonyl)naphtho[1,2-b]thiophen-5-yl)boronic acid] |  |  |  |  | palmitoylated STAT3 (STAT3 palmitoylation [3]; 25 μM): significant increase; palmitoylation signal of STAT3 (STAT3 palmitoylation [3]): more potent; inhibition at 90 µM (APT2 [4]; [13]): ~90%; inhibition of TAMRA-FP fluorescent labeling of APT2 (APT2 [4]; inhibitor at 270 μM): almost completely abolished; IC50 (APT2 [1]; [14]): 0.079 µM; more potent at inhibiting APT2 compared with ML349 (APT2 [1]; relative to ML349): ~9 times; tolerability in mice [5]: well tolerated; APT1 IC50 higher than APT2 IC50 (APT1 [2]; APT1 IC50 versus APT2 IC50): about 5.2 fold; IC50 (APT1 [2]; Example 3 (FIG. 4), 15 min pre-incubation, read-out: IC50 APT1): 0.41 µM; lengths of the colons compared to the control groups (DSS induced colitis): significant increase; body weight loss (DSS induced colitis): less severe; colon length longer than the control group (DSS induced colitis): 1.4 cm; difference in body weight (DSS induced colitis): no statistically significant difference; colon length difference to control (DSS induced colitis): ~0.5 cm; mode of APT2 inhibition (covalent or non-covalent) (APT2 [6]; from gel filtration assay): non-covalent inhibitor; TAMRA-FP fluorescent labeling of APT2 after gel filtration (APT2 [6]; lysate treated with inhibitor, passed over size exclusion column): almost complete fluorescent labeling after just one gel filtration; change of fluorescent intensity in bands other than APT2 (off target reaction) (off target proteins): only seen in the APT2 band; inhibition of APT1 in competitive ABPP (APT1 [7]): could also inhibit APT1 |
| COc1ccc(N2CCN(C(=O)c3cc4cc(B(O)O)c5ccccc5c4s3)CC2)cc1 [KW05129] | 0.079 | < 0.1 | 0.19 | 0.1 to 1 | SMAD2 palmitoylation level (SMAD2 palmitoylation): slightly better than ML349; time-dependent inhibition of APT2 (APT2 [1]; pre-incubation 30 min versus standard): not observed; APT2 IC50 lower than that of ML349 (APT2 [1]; relative to ML349): 8.54 fold; effect on cell viability (HEK 293T cells): no effect; STAT3 palmitoylation level (acylation normalized by STAT3 protein) (STAT3 palmitoylation [8]): slightly better than ML349 |
| COc1ccc(N2CCN(C(=O)c3cc4cc(O)c5ccccc5c4s3)CC2)cc1 [KW5130, (5-Hydroxynaphtho[1,2-b]thiophen-2-yl) (4-(4-methoxyphenyl)piperazin-1-yl) methanone] |  |  |  |  | IC50 (APT2 [1]; [14]): ~5 µM |
| COc1ccc(N2CCN(C(=O)c3ccc(-c4ccccc4B(O)O)s3)CC2)cc1 [KW5175, (2-(5-(4-(4-methoxyphenyl)piperazine-1-carbonyl)thiophen-2-yl)phenyl)boronic acid] |  |  |  |  | IC50 APT2 (APT2 [1]; [15]): much less potent |
| COc1ccc(N2CCN(C(=O)c3cc4cc(S(=O)(=O)F)c5ccccc5c4s3)CC2)cc1 [KW5191, 2-(4-(4-Methoxyphenyl)piperazine-1-carbonyl)naphtho[1,2-b]thiophene-5-sulfonyl fluoride] |  |  |  |  | IC50 (APT2 [1]; IC50 APT2): 1.8 µM |
| COc1ccc(N2CCN(C(=O)c3cc4cc(S(=O)(=O)F)c5ccccc5c4s3)CC2)cc1 [KW05191] |  |  |  |  | IC50 (APT2 [1]; IC50 (μM) APT2): 1.77 µM and 1 to 40 µM |
| COc1ccc(N2CCN(C(=O)c3cc(B(O)O)cs3)CC2)cc1 [KW5192, (5-(4-(4-Methoxyphenyl)piperazine-1-carbonyl)thiophen-3-yl)boronic acid] |  |  |  |  | IC50 (APT2 [1]; [14]): 1.1 µM |
| CCCOc1ccc(N2CCN(C(=O)c3cc4c(s3)-c3ccccc3S(=O)(=O)C4)CC2)cc1 [MY1, (5,5-Dioxido-4H-thieno[3,2-c]thiochromen-2-yl) (4-(4-propoxyphenyl)piperazin-1-yl) methanone] |  |  |  |  | IC50 APT2 (APT2 [1]; [15]): did not improve the potency |
| CCCCCCOc1ccc(N2CCN(C(=O)c3cc4c(s3)-c3ccccc3S(=O)(=O)C4)CC2)cc1 [MY2, (5,5-dioxido-4H-thieno[3,2-c]thiochromen-2-yl) (4-(4-(hexyloxy)phenyl)piperazin-1-yl) methanone] |  |  |  |  | IC50 APT2 (APT2 [1]; [15]): did not improve the potency |

Now from value to compound, other results behind:

| IC50 (APT2 [1]; [9]) [µM] | IC50 (APT2 [1]; [10]) [µM] | IC50 (APT1 [2]; [11]) [µM] | IC50 (APT1 [2]; [12]) [µM] | Structure (SMILES) | other results |
| --- | --- | --- | --- | --- | --- |
| 16.1 | 1 to 40 |  |  | COc1ccc(N2CCN(C(=O)c3ccc(-c4ccccc4B(O)O)s3)CC2)cc1 [KW05175] |  |
| 1.06 | 1 to 40 |  |  | COc1ccc(N2CCN(C(=O)c3cc(B(O)O)cs3)CC2)cc1 [KW05192] |  |
| > 200 | > 40 |  |  | O=C(CN1CCN(C(=O)c2ccco2)CC1)Nc1cc(C(F)(F)F)ccc1Cl [ML348, reference compound] |  |
| 0.675 | 0.1 to 1 | > 200 | > 40 | COc1ccc(N2CCN(C(=O)c3cc4c(s3)-c3ccccc3S(=O)(=O)C4)CC2)cc1 [ML349, reference compound] | palmitoylation signal of STAT3 (STAT3 palmitoylation [3]): slightly increased; inhibition at 90 µM (APT2 [4]; [13]): ~70%; inhibition at 270 µM (APT2 [4]; inhibitor at 270 μM, read-out: inhibition of TAMRA-FP fluorescent labeling of APT2): ~70%; APT2 selectivity / inhibition of APT1 (APT1 [2]; qualitative, FIG. 4): selective for APT2; lengths of the colons compared to the control groups (DSS induced colitis): significant increase; body weight loss (DSS induced colitis): less severe; colon length longer than the control group (DSS induced colitis): 1.4 cm; difference in body weight (DSS induced colitis): no statistically significant difference; colon length difference to control (DSS induced colitis): ~0.5 cm; effect on cell viability (HEK 293T cells): no effect; change of fluorescent intensity in bands other than APT2 (off target reaction) (off target proteins): only seen in the APT2 band; STAT3 palmitoylation level (acylation normalized by STAT3 protein) (STAT3 palmitoylation [8]): increase STAT3 palmitoylation levels |
